Results as given in patent US12691111B2, “SETD2 inhibitors and related methods and uses, including combination therapies” (EPIZYME, INC., priority 2020, dated 2026).

How the values were obtained:
KMS-11 = experiment: 7-day co-treatment combination study, CellTiter-Glo, Loewe Volume; conditions: for Combination effect (Loewe Volume class) of Cpd. No. 15 with combination partner: KMS-11 multiple myeloma cells, 7-day co-treatment with Cpd. No. 15
MM1.S = experiment: as above; format: cell-based; conditions: MM1.S multiple myeloma cells, 7-day co-treatment with Cpd. No. 15
Method: (§1) Multiple myeloma (MM) and mantle cell lymphoma (MCL) Cell line cultures in log-linear growth rate were treated with combinations of Cpd. No. 15 and combination partners according to a co-treatment model. […] No. 15 and the combination partner. […] Each combination was tested in quadruplicate wells. The final concentration of DMSO (vehicle) in the assay was 0.1% v/v. Fifty microliters of cell line suspension were directly dispensed to the assay-ready plates with an automated multichannel dispenser on to 384-well assay-ready plates. Assay plates were incubated for seven days in a humidified atmosphere of 5% CO2 at 37° C. Quantification of the effect of single agents or combinations on cell viability was performed through measurement of cellular adenosine triphosphate (ATP) using a CellTiter-Glo® (Promega, MadisonWIs.) Luminescent Cell Viability Assay. Luminescence was detected using a SpectraMax M5 microplate reader (Molecular Devices, Sunnyvale, CA). Concentration response plots were generated in GraphPad Prism version 7.0 for Windows, GraphPad Software, (La Jolla, CA) and curves fitted to a four-parameter logistic model with variable slope. Percent of inhibition was calculated at each treatment concentration.
(§2) The results of these combinations are summarized in Tables A and B (multiple myeloma cell lines), and Tables C and D (mantle cell lymphoma cell lines).

KMS34 = experiment: as above; format: cell-based; conditions: KMS34 multiple myeloma cells, 7-day co-treatment with Cpd. No. 15
Method: as §1, §2

RPMI-8226 = experiment: as above; format: cell-based; conditions: RPMI-8226 multiple myeloma cells, 7-day co-treatment with Cpd. No. 15
Method: as §1, §2

NCI-H929 = experiment: as above; format: cell-based; conditions: NCI-H929 multiple myeloma cells, 7-day co-treatment with Cpd. No. 15
Method: as §1, §2

KMS-28-BM = experiment: as above; format: cell-based; conditions: KMS-28-BM multiple myeloma cells, 7-day co-treatment with Cpd. No. 15
Method: as §1, §2

L363 = experiment: as above; format: cell-based; conditions: L363 multiple myeloma cells, 7-day co-treatment with Cpd. No. 15
Method: as §1, §2

SUDHL-2 = experiment: Pre-treatment model combination study (4 days pre-treatment, 3 days co-treatment), CellTiter-Glo, Loewe Volume; format: cell-based; conditions: SUDHL-2 diffuse large B-cell lymphoma cells, 4 days Cpd. No. 15 pre-treatment then 3 days co-treatment
Method: (§3) Diffuse large B-cell lymphoma cells were seeded into flasks and pre-treated with several concentrations of Cpd. No. 15 or DMSO. Cells were then split adjusted to initial density, replated and co-treated Cpd. No. 15 and a second agent of interest using the HP D300 digital dispenser (Tecan Group, Mannedorf, Switzerland) in tissue culture treated solid white 384-well plates for additional 3 days. […] After 3 days cotreatment, cell viability was measured via ATP content using CellTiter-Glo® (Promega, Madison, WI) and luminescence was detected using a SpectraMax M5 microplate reader (Molecular Devices, Sunnyvale, CA).
(§4) Diffuse large B-cell lymphoma (DLBCL) cell line cultures in log-linear growth rate were treated with combinations of Cpd. No. 15 and combination partners according to a pre-treatment model. Cells were seeded first into 8 flasks and pre-treated with 7 different concentrations of Cpd. […] Cells were harvested from each flask and re-seeded onto the corresponding 384-well plate with the same concentration of Cpd. No. 15. and 9 concentrations of its combination partner in triplicate wells. The final concentration of DMSO (vehicle) in the assay was 0.1% v/v. Fifty microliters of cell line(s) suspension were directly dispensed to the assay-ready plates with an automated multichannel dispenser on to 384-well assay-ready plates. Assay plates were incubated for three days in a humidified atmosphere of 5% CO2 at 37° C. Quantification of the effect of single agents or combinations on cell viability was performed through measurement of cellular adenosine triphosphate (ATP) using CellTiter-Glo® (Promega, Madison, WI). Luminescence was detected using a SpectraMax M5 microplate reader (Molecular Devices, Sunnyvale, CA). Concentration response plots were generated in GraphPad Prism version 8.0 for Windows, GraphPad Software, (La Jolla, CA) and curves fitted to a four-parameter logistic model with variable slope. Percent of inhibition was calculated at each treatment concentration.

SUDHL-6 = experiment: as above; format: cell-based; conditions: SUDHL-6 diffuse large B-cell lymphoma cells, 4 days Cpd. No. 15 pre-treatment then 3 days co-treatment
Method: as §3, §4

WSUDLCL2 = experiment: as above; format: cell-based; conditions: WSUDLCL2 diffuse large B-cell lymphoma cells, 4 days Cpd. No. 15 pre-treatment then 3 days co-treatment
Method: as §3, §4

KARPAS422 = experiment: as above; format: cell-based; conditions: KARPAS422 diffuse large B-cell lymphoma cells, 4 days Cpd. No. 15 pre-treatment then 3 days co-treatment
Method: as §3, §4

GRANTA519 = experiment: 7-day co-treatment combination study, CellTiter-Glo, Loewe Volume; format: cell-based; conditions: GRANTA519 mantle cell lymphoma cells, 7-day co-treatment with Cpd. No. 15
Method: as §1, §2

JVM2 = experiment: as above; format: cell-based; conditions: JVM2 mantle cell lymphoma cells, 7-day co-treatment with Cpd. No. 15
Method: as §1, §2

Z138 = experiment: as above; format: cell-based; conditions: Z138 mantle cell lymphoma cells, 7-day co-treatment with Cpd. No. 15
Method: as §1, §2

JEKO1 = experiment: as above; format: cell-based; conditions: JEKO1 mantle cell lymphoma cells, 7-day co-treatment with Cpd. No. 15
Method: as §1, §2

MAVER1 = experiment: as above; format: cell-based; conditions: MAVER1 mantle cell lymphoma cells, 7-day co-treatment with Cpd. No. 15
Method: as §1, §2

REC1 = experiment: as above; format: cell-based; conditions: REC1 mantle cell lymphoma cells, 7-day co-treatment with Cpd. No. 15
Method: as §1, §2

MINO = experiment: as above; format: cell-based; conditions: MINO mantle cell lymphoma cells, 7-day co-treatment with Cpd. No. 15
Method: as §1, §2

SMILES	Combination effect (Loewe Volume class) of Cpd. No. 15 with combination partner (KMS-11)	Combination effect (Loewe Volume class) of Cpd. No. 15 with combination partner (MM1.S)	Combination effect (Loewe Volume class) of Cpd. No. 15 with combination partner (KMS34)	Combination effect (Loewe Volume class) of Cpd. No. 15 with combination partner (RPMI-8226)	Combination effect (Loewe Volume class) of Cpd. No. 15 with combination partner (NCI-H929)	Combination effect (Loewe Volume class) of Cpd. No. 15 with combination partner (KMS-28-BM)	Combination effect (Loewe Volume class) of Cpd. No. 15 with combination partner (L363)	also measured
C[C@@H]1C[C@H]2[C@@H]3CCC4=CC(=O)C=C[C@]4(C)[C@@]3(F)[C@@H](O)C[C@]2(C)[C@@]1(O)C(=O)CO [Dexamethasone, dexamethasone]	Synergy (VLoewe>1: synergy)	Additivity (between 1 and −1: additivity)	Synergy (VLoewe>1: synergy)	Synergy (VLoewe>1: synergy)	Synergy (VLoewe>1: synergy)	Additivity (between 1 and −1: additivity)	Synergy (VLoewe>1: synergy)	
O=C(/C=C\n1cnc(-c2cc(C(F)(F)F)cc(C(F)(F)F)c2)n1)NNc1cnccn1 [Selinexor, selinexor]	Additivity (between 1 and −1: additivity)	Additivity (between 1 and −1: additivity)	Synergy (VLoewe>1: synergy)	Additivity (between 1 and −1: additivity)	Synergy (VLoewe>1: synergy)	Additivity (between 1 and −1: additivity)	Additivity (between 1 and −1: additivity)	
Cc1nc2cccc(N)c2c(=O)n1C1CCC(=O)NC1=O (centres unmarked) [CC-122]	Synergy (VLoewe>1: synergy)	Additivity (between 1 and −1: additivity)	Synergy (VLoewe>1: synergy)	Additivity (between 1 and −1: additivity)	Synergy (VLoewe>1: synergy)	Additivity (between 1 and −1: additivity)	Additivity (between 1 and −1: additivity)	
CC(=O)N1CCN([C@H]2CCC[C@@H](NC(=O)c3cc4c(F)ccc(C)c4[nH]3)C2)CC1 [Cpd. No. 15, N-((1R,3S)-3-(4-acetylpiperazin-1-yl)cyclohexyl)-4-fluoro-7-methyl-1H-indole-2-carboxamide]								anti-proliferative activity of Cpd. No. 15 combined with pomalidomide (KMS-11; KMS-11 cells, 7-day co-treatment study, combined with pomalidomide (FIG. 3)): synergistic
Nc1cccc2c1C(=O)N(C1CCC(=O)NC1=O)C2=O (centres unmarked) [Pomalidomide, pomalidomide]	Synergy (VLoewe>1: synergy)	Additivity (between 1 and −1: additivity)	Synergy (VLoewe>1: synergy)	Synergy (VLoewe>1: synergy)	Synergy (VLoewe>1: synergy)	Additivity (between 1 and −1: additivity)	Additivity (between 1 and −1: additivity)	
C[C@]12C=CC(=O)C=C1CC[C@@H]1[C@@H]2[C@@H](O)C[C@@]2(C)[C@H]1CC[C@]2(O)C(=O)CO [Prednisolone, prednisolone]								Combination effect (Loewe Volume class) of Cpd. No. 15 with combination partner (SUDHL-2): Synergy (VLoewe>1: synergy); Combination effect (Loewe Volume class) of Cpd. No. 15 with combination partner (SUDHL-6): Synergy (VLoewe>1: synergy); Combination effect (Loewe Volume class) of Cpd. No. 15 with combination partner (WSUDLCL2): Antagonism (<−1: antagonistic); Combination effect (Loewe Volume class) of Cpd. No. 15 with combination partner (KARPAS422): Additivity (between 1 and −1: additivity); Combination effect (Loewe Volume class) of Cpd. No. 15 with combination partner (GRANTA519): Synergy (VLoewe>1: synergy); Combination effect (Loewe Volume class) of Cpd. No. 15 with combination partner (JVM2): Additivity (between 1 and −1: additivity); Combination effect (Loewe Volume class) of Cpd. No. 15 with combination partner (Z138): Additivity (between 1 and −1: additivity); Combination effect (Loewe Volume class) of Cpd. No. 15 with combination partner (JEKO1): Additivity (between 1 and −1: additivity); Combination effect (Loewe Volume class) of Cpd. No. 15 with combination partner (MAVER1): Synergy (VLoewe>1: synergy); Combination effect (Loewe Volume class) of Cpd. No. 15 with combination partner (REC1): Synergy (VLoewe>1: synergy); Combination effect (Loewe Volume class) of Cpd. No. 15 with combination partner (MINO): Additivity (between 1 and −1: additivity)
CCN(c1cc(C#CCN2CCOCC2)cc(C(=O)NCc2c(C)cc(C)[nH]c2=O)c1C)[C@H]1CC[C@H](N(C)CCOC)CC1 [EPZ-11989]	Additivity (between 1 and −1: additivity)				No Effect	Additivity (between 1 and −1: additivity)		
Cc1[nH]c2ccccc2c1CCNCc1ccc(/C=C/C(=O)NO)cc1 [Panobinostat, panobinostat]	Additivity (between 1 and −1: additivity)	Additivity (between 1 and −1: additivity)	Synergy (VLoewe>1: synergy)	Additivity (between 1 and −1: additivity)	Synergy (VLoewe>1: synergy)	Additivity (between 1 and −1: additivity)	Additivity (between 1 and −1: additivity)	
